# From ChEMBL document CHEMBL4251690, “Histone Deacetylase Inhibitors as Treatment for Targeting Multiple Components in Cancer Therapy” (ACS Med Chem Lett, 2018)
# Tests used:
# Assay type in all cases: cell-based
# [1] = target: T1, Histone-lysine N-methyltransferase EHMT2 (Homo sapiens, UniProt Q96KQ7); test: Inhibition of G9a in human MDA-MB-231 cells assessed as reduction in H3K9me2 level after 2 days by immunofluorescence in-cell western analysis
# T1 sequence (Q96KQ7 whole entry): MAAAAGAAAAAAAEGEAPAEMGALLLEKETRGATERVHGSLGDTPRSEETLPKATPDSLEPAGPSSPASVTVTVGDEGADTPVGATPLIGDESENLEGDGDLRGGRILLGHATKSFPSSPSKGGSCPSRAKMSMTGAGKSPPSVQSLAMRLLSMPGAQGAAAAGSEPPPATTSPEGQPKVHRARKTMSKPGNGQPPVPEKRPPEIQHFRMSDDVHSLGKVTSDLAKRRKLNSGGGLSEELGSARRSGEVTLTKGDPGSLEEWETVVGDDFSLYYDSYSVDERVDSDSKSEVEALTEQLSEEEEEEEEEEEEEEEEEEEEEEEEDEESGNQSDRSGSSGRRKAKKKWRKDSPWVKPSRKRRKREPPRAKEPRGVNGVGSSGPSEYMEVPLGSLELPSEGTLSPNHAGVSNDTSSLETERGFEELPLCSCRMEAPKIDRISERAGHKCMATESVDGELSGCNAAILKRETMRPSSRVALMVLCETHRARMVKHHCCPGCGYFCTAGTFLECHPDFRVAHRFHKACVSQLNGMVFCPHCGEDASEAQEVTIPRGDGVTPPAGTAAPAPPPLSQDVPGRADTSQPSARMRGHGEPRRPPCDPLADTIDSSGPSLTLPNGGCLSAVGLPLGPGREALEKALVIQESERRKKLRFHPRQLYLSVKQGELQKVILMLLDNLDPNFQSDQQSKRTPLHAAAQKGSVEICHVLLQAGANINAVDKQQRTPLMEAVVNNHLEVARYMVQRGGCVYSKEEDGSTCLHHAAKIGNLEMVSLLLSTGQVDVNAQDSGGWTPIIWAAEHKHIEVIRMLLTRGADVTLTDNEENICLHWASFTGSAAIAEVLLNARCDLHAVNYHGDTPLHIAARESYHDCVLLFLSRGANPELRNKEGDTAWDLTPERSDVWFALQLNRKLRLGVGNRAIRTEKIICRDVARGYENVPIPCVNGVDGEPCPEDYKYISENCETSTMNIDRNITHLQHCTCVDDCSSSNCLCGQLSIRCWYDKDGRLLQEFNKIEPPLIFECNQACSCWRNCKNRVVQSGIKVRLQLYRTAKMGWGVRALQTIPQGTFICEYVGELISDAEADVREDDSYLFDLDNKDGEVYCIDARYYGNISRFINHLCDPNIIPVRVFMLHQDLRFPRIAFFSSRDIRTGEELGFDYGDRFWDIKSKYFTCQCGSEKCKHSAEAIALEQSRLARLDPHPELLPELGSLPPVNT
# Histone deacetylase [2] = test: Inhibition of HDAC in human K562 cells using Boc-K(Ac)-AMC as substrate by fluorescence assay
# Histone deacetylase [3] = test: Inhibition of HDAC in human HeLa cells using Boc-K(Ac)-AMC as substrate by fluorescence assay
# Histone deacetylase [4] = test: Inhibition of HDAC in human A549 cells using Boc-K(Ac)-AMC as substrate by fluorescence assay
IC50 [1] [µM],IC50 (Histone deacetylase [2]) [µM],IC50 (Histone deacetylase [3]) [µM],IC50 (Histone deacetylase [4]) [µM],Structure (SMILES)
47,–,–,–,CNC(=O)CCCCC(=O)NCCNc1nc(NC2CCN(C)CC2)c2ccc(OC)cc2n1
–,> 100,> 100,> 100,COc1ccc2c(NCCNC(=O)CCCCCCC(=O)NO)nc(N3CCCN(C)CC3)nc2c1
–,5.735,13.8,> 100,COc1ccc2c(NC3CCN(Cc4ccccc4)CC3)nc(NCCNC(=O)CCCCCC(=O)NO)nc2c1
–,27.75,15.33,> 100,COc1ccc2c(NC3CCN(Cc4ccccc4)CC3)nc(NCCNC(=O)CCCCCCC(=O)NO)nc2c1
